Assay results published in the NIST ThermoML archive (doi:10.1016/j.fluid.2007.02.007).
± gives the expanded uncertainty stated by the source.

What was measured:
[1] = Crystal
[2] = Solid-liquid equilibrium temperature; conditions: Crystal

| Structure (SMILES) | Normal melting temperature [1] | Solid-liquid equilibrium temperature ([2]; 20000 kPa) | Solid-liquid equilibrium temperature ([2]; 40000 kPa) | Solid-liquid equilibrium temperature ([2]; 60000 kPa) | Solid-liquid equilibrium temperature ([2]; 70000 kPa) | Solid-liquid equilibrium temperature ([2]; 80000 kPa) | Solid-liquid equilibrium temperature ([2]; 90000 kPa) |
| --- | --- | --- | --- | --- | --- | --- | --- |
| CCCCCCCCCCCC(=O)O [dodecanoic acid] | 43.03 ± 1.2 °C | 320.6 ± 1.2 K | 325.17 ± 1.2 K | 329.76 ± 1.2 K | 331.86 ± 1.2 K | 334.1 ± 1.2 K | 336.1 ± 1.2 K |
| CCCCCCCC(=O)O [octanoic acid] | 16.71 ± 1.2 °C | 294.52 ± 1.2 K | 299.35 ± 1.2 K | 303.85 ± 1.2 K | – | 308.09 ± 1.2 K | 309.98 ± 1.2 K |
| CCCCCCCCCCCCCC(=O)O [tetradecanoic acid] | 54.4 ± 1.2 °C | 332.3 ± 1.2 K | 337.25 ± 1.2 K | 342.31 ± 1.2 K | 344.68 ± 1.2 K | 346.55 ± 1.2 K | 348.93 ± 1.2 K |
